We go through 12 compounds from paper PMC12096242 (ACS Omega, 2025).

In the experiment the target is T1, TcGLIP (MBP-TcGLIP) (Tanacetum cinerariifolium, UniProt H6U1I8).
T1 sequence (H6U1I8 28-365): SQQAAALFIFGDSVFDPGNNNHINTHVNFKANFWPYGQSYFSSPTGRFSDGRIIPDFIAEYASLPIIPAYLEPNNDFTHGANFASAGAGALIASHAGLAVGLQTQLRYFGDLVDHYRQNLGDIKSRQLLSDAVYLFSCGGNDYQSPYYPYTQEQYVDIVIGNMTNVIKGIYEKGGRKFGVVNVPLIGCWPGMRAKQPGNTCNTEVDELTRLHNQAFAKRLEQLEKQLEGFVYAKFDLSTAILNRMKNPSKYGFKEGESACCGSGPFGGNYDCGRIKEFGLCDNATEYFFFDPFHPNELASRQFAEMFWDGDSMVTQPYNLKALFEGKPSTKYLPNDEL
Put plainly: HPLC.

Turning to `C=C/C=C\CC1=C(C)[C@@H](O[P@@](=O)(CCCCC)Oc2ccc([N+](=O)[O-])cc2)CC1=O` [1a], it took 23.4 nM to reach half-maximal inhibition (IC50). For the compound `C=C/C=C\CC1=C(C)[C@@H](O[P@](=O)(CCCCC)Oc2ccc([N+](=O)[O-])cc2)CC1=O` [1b], the IC50 (as a rule, the concentration that inhibits the measured activity by half) is 245 nM. The value for `C/C=C\CC1=C(C)[C@@H](O[P@@](=O)(CCCCC)Oc2ccc([N+](=O)[O-])cc2)CC1=O` [2a, (S)p, (S)c-2-Methyl-4-oxo-3-((Z)-2-buten-1-yl)cyclopent-2-en-1-yl 4-Nitrophenyl n-Pentylphosphonate] was 29.5 nM. The value for `C/C=C\CC1=C(C)[C@@H](O[P@](=O)(CCCCC)Oc2ccc([N+](=O)[O-])cc2)CC1=O` [2b, (R)p, (S)c-2-Methyl-4-oxo-3-((Z)-2-buten-1-yl)cyclopent-2-en-1-yl 4-Nitrophenyl n-Pentylphosphonate] was 347 nM. The value for `CC/C=C\CC1=C(C)[C@@H](O[P@@](=O)(CCCCC)Oc2ccc([N+](=O)[O-])cc2)CC1=O` [3a, (S)p, (S)c-2-Methyl-4-oxo-3-((Z)-2-penten-1-yl)cyclopent-2-en-1-yl 4-Nitrophenyl n-Pentylphosphonate] was 40.7 nM; that for `CC/C=C\CC1=C(C)[C@@H](O[P@](=O)(CCCCC)Oc2ccc([N+](=O)[O-])cc2)CC1=O` [3b, (R)p, (S)c-2-Methyl-4-oxo-3-((Z)-2-penten-1-yl)cyclopent-2-en-1-yl 4-Nitrophenyl n-Pentylphosphonate] was 316 nM; that for `C=C/C=C\CC1=C(C)[C@@H](O[P@@](=O)(CCCCCCCC)Oc2ccc([N+](=O)[O-])cc2)CC1=O` [4a] was 69.2 nM. `C=C/C=C\CC1=C(C)[C@@H](O[P@](=O)(CCCCCCCC)Oc2ccc([N+](=O)[O-])cc2)CC1=O` [4b]: the IC50 was 14.1 nM. As for `C/C=C\CC1=C(C)[C@@H](O[P@@](=O)(CCCCCCCC)Oc2ccc([N+](=O)[O-])cc2)CC1=O` [5a, (S)p, (S) c-2-Methyl-4-oxo-3-((Z)-2-buten-1-yl)cyclopent-2-en-1-yl 4-Nitrophenyl n-Octylphosphonate], the figure is 120 nM; as for `C/C=C\CC1=C(C)[C@@H](O[P@](=O)(CCCCCCCC)Oc2ccc([N+](=O)[O-])cc2)CC1=O` [5b, (R)p, (S)c-2-Methyl-4-oxo-3-((Z)-2-buten-1-yl)cyclopent-2-en-1-yl 4-Nitrophenyl n-Octylphosphonate], 27.5 nM. As for `CC/C=C\CC1=C(C)[C@@H](O[P@@](=O)(CCCCCCCC)Oc2ccc([N+](=O)[O-])cc2)CC1=O` [6a, (S)p, (S)c-2-Methyl-4-oxo-3-((Z)-2-penten-1-yl)cyclopent-2-en-1-yl 4-Nitrophenyl n-Octylphosphonate], the figure is 309 nM.

As for `CC/C=C\CC1=C(C)[C@@H](O[P@](=O)(CCCCCCCC)Oc2ccc([N+](=O)[O-])cc2)CC1=O` [6b, (R)p, (S)c-2-Methyl-4-oxo-3-((Z)-2-penten-1-yl)cyclopent-2-en-1-yl 4-Nitrophenyl n-Octylphosphonate], it took 38 nM to reach half-maximal inhibition (IC50).
